# From ChEMBL document CHEMBL3046619, “Peroxidizing Phytotoxicities of 1, 2-Dialkyl-1, 2, 4-triazolidines and 3, 4-Dialkyl-1, 3, 4-thiadiazolidines” (J Pestic Sci, 1997)
# Molecular target: T1, Protoporphyrinogen IX oxidase (Zea mays, UniProt Q9FYV8)
# T1 sequence (Q9FYV8 whole entry): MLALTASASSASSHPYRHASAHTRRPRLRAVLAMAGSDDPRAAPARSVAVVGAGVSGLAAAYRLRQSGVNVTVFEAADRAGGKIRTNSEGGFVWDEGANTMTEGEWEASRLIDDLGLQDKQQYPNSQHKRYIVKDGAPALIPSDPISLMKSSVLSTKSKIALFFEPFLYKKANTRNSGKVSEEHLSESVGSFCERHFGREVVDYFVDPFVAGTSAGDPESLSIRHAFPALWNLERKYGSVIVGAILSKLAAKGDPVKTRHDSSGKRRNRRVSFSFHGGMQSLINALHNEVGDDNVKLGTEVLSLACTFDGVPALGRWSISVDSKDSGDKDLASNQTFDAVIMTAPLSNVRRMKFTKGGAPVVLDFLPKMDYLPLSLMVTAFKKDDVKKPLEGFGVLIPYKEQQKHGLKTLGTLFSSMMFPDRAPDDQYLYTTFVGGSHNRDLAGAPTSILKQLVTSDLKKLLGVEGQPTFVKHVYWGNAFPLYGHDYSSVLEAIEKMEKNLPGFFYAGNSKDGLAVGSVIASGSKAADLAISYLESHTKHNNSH
# Test: Inhibition of Zea mays (maize) protoporphyrinogen IX oxidase
# Conditions: read-out: pI50 (converted)
row,Structure (SMILES),IC50
1,O=c1[nH][nH]c(=S)n1-c1ccc(Br)cc1,72.4 µM
2,Cn1c(=O)n(-c2ccc(Br)cc2)c(=O)n1C,12.9 µM
3,CCn1c(=O)n(-c2ccc(Br)cc2)c(=O)n1CC,36.3 µM
4,CCCn1c(=O)n(-c2ccc(Br)cc2)c(=S)n1CCC,24.5 µM
5,Cn1c(=O)s/c(=N\c2ccc(Br)cc2)n1C,3.72 µM
6,Cn1c(=S)s/c(=N\c2ccc(Br)cc2)n1C,3.09 µM
7,CCn1c(=O)s/c(=N\c2ccc(Br)cc2)n1CC,8.71 µM
8,CCn1c(=S)s/c(=N\c2ccc(Br)cc2)n1CC,4.27 µM
9,O=C1C2=C(CCCC2)C(=O)N1c1ccc(Cl)cc1 [CHLOROPHTHALIUM],0.0501 µM

# Other lines, results leading:
row,IC50,Structure (SMILES)
1,0.01 µM,S=c1n(-c2ccc(Br)cc2)c(=S)n2n1CCCC2
2,0.282 µM,Cn1c(=O)n(-c2ccc(Br)cc2)c(=S)n1C
3,0.11 µM,Cn1c(=S)n(-c2ccc(Br)cc2)c(=S)n1C
4,0.832 µM,CCn1c(=O)n(-c2ccc(Br)cc2)c(=S)n1CC
5,1.38 µM,CCn1c(=S)n(-c2ccc(Br)cc2)c(=S)n1CC
6,0.0347 µM,S=c1n(-c2ccc(Br)cc2)c(=S)n2n1CCC2
7,0.129 µM,S=c1n(-c2ccc(Br)cc2)c(=S)n2n1CCCCC2
